The test system of data set [1] is Tetranychus urticae. Put plainly: Leaf disc track-sprayer bioassay against red spider mite. As to conditions: for Concentration effect ca LD25 3DAA / Concentration effect ca LD50 3DAA: T. urticae; for activity against T. urticae when applied alone: range-finding assay. The data set is classed as in vivo.
Method: Test arenas consisted of excised leaf discs of the host plant Phaseolus vulgaris infested with the target organism, Tetranychus urticae. A track sprayer was used to spray the test solutions at an application volume of 200 L/ha. Assessment of mortality (survival), any other sub lethal effects and phytotoxicity were carried out at 24 hours and 72 hours post application (3DAA).
The subject of data set [2] is Myzus persicae. Conditions: for Concentration effect ca LD25 3DAA: M. persicae; for aphicidal activity against M. persicae when applied alone: range-finding assay; for pesticidal activity against M. persicae, product alone in mixture study: alone at rate taken as ca. LD25 (BUGOIL 10 mL/L, imidacloprid 0.1, indoxacarb 100, spinosad 1 g (a.i.)/ha). How it is done:
Test arenas consisted of excised leaf discs of the host plant infested with the target organism.
Test arenas consisted of excised leaf discs of the host plant Brassica rapa chinensis infested with the target organism, Myzus persicae. A track sprayer was used to spray the test solutions at an application volume of 200 L/ha. Assessment of mortality (survival), any other sub lethal effects and phytotoxicity were carried out at 24 hours and 72 hours post application (3DAA).

In data set [3] the test system is Spodoptera litura. Put plainly: Field study, cutworm on eggplant. In kind it is in vivo. Conditions: 7 DAA. The method, then:
(§1) For the field experiments described in Examples 14-16, the numbers of target organisms on host plants were assessed before treatment and after treatment.
(§2) Field studies as described below were carried out to determine the efficacy of BUGOIL®, lambda cyhalothrin, imidacloprid, and abamectin, alone and in mixtures with BUGOIL®, for control of the whitefly Bemisia tabaci, the leafhopper Empoasca biggutula, the aphid Aphis gosspyii, the shoot/fruit borer Leucinodes orbonalis and the cutworm Spodoptera litura on the eggplant cultivar “Casino” (Solanum melongena cv Casino). In the following studies, the dose (N) is the label dose for each product, expressed in concentration (grams active ingredient) per liter of spray mixture (a.i.)/l).
Lambda cyhalothrin is formulated as Karate® (KARATE® with Zeon Technology, Syngenta Phillipines, Inc., Batch No. JAK8,18179, Production Date Nov. 11, 2008, Phillipines Department of Agriculture, Fertilizer and Pesticides Authority (FPA) Reg. No. 011-204-0396), where the dose prior to dilution=N=label dose=0.8 g (a.i.)/l (rated adapted to lepidopterian and leafhopper pests).
(§3) Imidacloprid is formulated as CLIMAX® (CLIMAX® 200 SL, Bayer CropScience, Inc., Batch No. 81001025, Production Date Feb. 22, 2005, FPA Reg. No. 284-240-0761 where the dose prior to dilution=N=label dose=0.15 g (a.i.)/l.
(§4) Abamectin is formulated as AGRI-MEK® (AGRI-MEK® 1.8 EC, Syngenta Phillipines, Inc., FPA Reg. No. 011-234-0791), where the dose prior to dilution=N=label dose=0.018 g (a.i.)/l.

In data set [4] the test system is Trialeurodes sp. Kind of data set: Field study, adult whitefly on zucchini. The data set is classed as in vivo. As to conditions: FIG. 12, imidacloprid alone at N/2 dilution. The method, then: as §1
Field studies as described below were carried out to determine the efficacy of BUGOIL® alone, lambda cyhalothrin alone, imidacloprid alone, abamectin alone, and mixtures of BUGOIL® with lambda cyhalothrin, imidacloprid, or abamectin, for control of adult whiteflies of different whitefly species, on zucchini and cucumber. In the following studies, the dose (N) is the label dose for each product, expressed in concentration (grams active ingredient) per liter of spray mixture (a.i.)/1).

The subject of data set [5] is Empoasca biggutula. Kind of data set: Field study, leafhopper on eggplant. In kind it is in vivo. The method, then: as §1, §2, §3, §4
Data set [6] deals with Bemisia tabaci. Kind of data set: Field study, adult whitefly on eggplant. As to conditions: over a 14 day test period, product alone. In kind it is in vivo. How it is done:
as §1, §2, §3

For data set [7], the system named is sucking insect pests (whitefly, leafhoppers and aphids). Kind of data set: Field study, sucking insect pests on eggplant. In kind it is in vivo. As to conditions: abamectin as AGRI-MEK 1.8 EC, mixtures at reduced rates, sucking insect and lepidopteran pests. How it is done:
as §1, §2

[8] abbreviates: alone at recommended application rate (N).
[9] abbreviates: 72 hours, *not necessarily at the LD25 level, little or no response to the dose range.
[10] abbreviates: 72 hours, *not necessarily at the LD50 level, little or no response to the dose range.

The record followed here is patent publication US20110318272A1, “PESTICIDAL MIXTURES GIVING S[…]” (priority 2010, published 2011).

“Also recorded” adds a separate entry of the source. Like-named read-outs stand apart in the source and are kept apart here.

With `CC1(C)[C@H](C(=O)O[C@H](C#N)c2cccc(Oc3ccccc3)c2)[C@@H]1/C=C(\Cl)C(F)(F)F` (racemic) [lambda-cyhalothrin, Lambda-cyhalothrin], in data set [1] (FIG. 4B, BUGOIL at ca. LD25 (5 mL/L), lambda-cyhalothrin at ca. LD25 (0.05 g (a.i.)/ha), mixtures Treatments 3, 4, 5, 7, 8, 72 hours), the “pesticidal activity against T. urticae in mixture study” value is reported as “showed pesticidal activity”. Further, in data set [1] (72 hours after application), the “Concentration effect ca LD25 3DAA” value was around 0.05 g a.i./ha and the “Concentration effect ca LD50 3DAA” value is around 0.1 g a.i./ha. For the same compound, in data set [1] (72 hours), the “activity against T. urticae when applied alone” value was “active”. The “Concentration effect ca LD25 3DAA” value in data set [2] (72 hours after application) is reported as around 0.01 g a.i./ha. Also, in data set [2] (72 hours), the “aphicidal activity against M. persicae when applied alone” value (from here on “aphicidal activity against M. persicae”) is given as “high aphicidal activity”. For the same compound, the “control of cutworm, S litura” value in data set [3] (setting [8]) was “around 60%”.

Turning to `O=[N+]([O-])NC1=NCCN1Cc1ccc(Cl)nc1` [imidacloprid, (2E)-1-[(6-chloro-3-pyridinyl)methyl]-N-nitro-2-imidazolidinimine], the “Concentration effect ca LD25 3DAA” value in data set [1] (setting [9]) was around 100 g a.i./ha; in data set [2] (72 hours after application) it was around 0.1 g a.i./ha. The “Concentration effect ca LD50 3DAA” value in data set [1] (setting [10]) is around 400 g a.i./ha. Further, the “activity against T. urticae when applied alone” value in data set [1] (72 hours) was “minimal activity”. Moreover, the mortality rates result in data set [2] (range finder assay, concentrations of 1 g a.i./ha and above) is on record as “greater than 90%”. In addition, the “aphicidal activity against M. persicae” value in data set [2] (72 hours) is “active”. Also, in data set [4], the “control of adult whiteflies” value is given as 30-40%. The compound further came in with a control of leafhoppers in data set [5] (1 HAA, imidacloprid alone at half the normal rate (½ N)) of 37%. The “control of adult whitefly, B. tabaci” value in data set [6] was at most 50%. Also, the “control of cutworm, S litura” value in data set [3] (setting [8]) is listed as “around 60%”.

Consider `COC(=O)N(C(=O)N1CO[C@@]2(C(=O)OC)Cc3cc(Cl)ccc3C2=N1)c1ccc(OC(F)(F)F)cc1` [indoxacarb, methyl (4aS)-7-chloro-2,5-dihydro-2-[[(methoxycarbonyl)[4-(trifluoromethoxy)phenyl]amino]carbonyl] indeno[1,2-e][1,3,4]oxadiazine-4a(3H)-carboxylate], for which the “Concentration effect ca LD25 3DAA” value in data set [1] (setting [9]) is around 100 g a.i./ha. The “Concentration effect ca LD50 3DAA” value in data set [1] (setting [10]) is around 400 g a.i./ha. Moreover, the “activity against T. urticae when applied alone” value in data set [1] (72 hours) is “minimal activity; also recorded: not shown to be active”. In addition, in data set [2] (setting [9]), the “Concentration effect ca LD25 3DAA” value is around 100 g a.i./ha. In data set [2] (72 hours), the “pesticidal activity against M. persicae, product alone in mixture study” value is on record as “did not have measurable pesticidal activity” and the “aphicidal activity against M. persicae” value is “little aphicidal activity”.

Take Abamectin: the “Observed mean % mortality of T urticae” value in data set [1] (0.25 g abamectin/L alone) turned out to be 10%. Besides, the “Concentration effect ca LD25 3DAA” value in data set [1] (72 hours after application) is on record as around 0.025 g a.i./ha; in data set [2] (72 hours after application) it was around 5 g a.i./ha. Besides, the “Concentration effect ca LD50 3DAA” value in data set [1] (72 hours after application) is recorded as around 0.040 g a.i./ha; in data set [1] (72 hours after application, listed as Abamectin (Vertan)), around 0.04 g a.i./ha. For the same compound, the “activity against T. urticae when applied alone” value in data set [1] (72 hours) is “active”. Moreover, in data set [2] (applied as VERTAN at LD25 (5 g (a.i.)/ha) or above, 72 hours), the mortality rate is around 100%. Further, the “aphicidal activity against M. persicae” value in data set [2] (72 hours) is reported as “active”. In addition, the “control of leafhopper E. biggutula” value is 78% in data set [5] (3 days after application 1, BUGOIL alone at 5 mL/L); 66% in data set [5] (3 days after application 2, BUGOIL alone at 5 mL/L); 49% in data set [5] (3 days after application 3, BUGOIL alone at 5 mL/L). For the same compound, in data set [5] (single application, 3 days after application), the “control of leafhopper E biggutula” value was “around 80%”. For the same compound, the “control of cutworm, S litura” value in data set [3] (abamectin alone) is given as 70%. Also, the “control of eggplant pests” value in data set [7] is reported as “good effects”.

In the case of Spinosad, in data set [1] (10 g spinosad/L alone), the “Observed mean % mortality of T urticae” value was 8%. For the same compound, in data set [1] (72 hours after application), the “Concentration effect ca LD25 3DAA” value is on record as around 10 g a.i./ha and the “Concentration effect ca LD50 3DAA” value is around 50 g a.i./ha. In addition, the “activity against T. urticae when applied alone” value in data set [1] (72 hours) is “a dose response to spinosad was observed”. For the same compound, in data set [2] (setting [9]), the “Concentration effect ca LD25 3DAA” value is on record as around 10 g a.i./ha. For the same compound, in data set [2] (72 hours), the “pesticidal activity against M. persicae, product alone in mixture study” value is reported as “no measurable pesticidal activity” and the “aphicidal activity against M. persicae” value is reported as “variable aphicidal activity”.
